Laboratory results taken from paper PMC4222410, “Gold(I)-catalysed synthesis of a furan analogue of thiamine pyrophosphate” (Beilstein Journal of Organic Chemistry, 2014).

Target: T1, pyruvate decarboxylase (ZmPDC) (Zymomonas mobilis, UniProt P06672)
T1 construct: gene pdc; N-terminal His6-tag, pET28a, overexpressed in E. coli; tetramer (dimer of dimers)
Assay: coupled PDC/ADH assay (NADH, […] nm); time-course inactivation of apo-PDC and equilibrium competition with ThDP
Type: biochemical

T1 sequence (P06672 whole entry): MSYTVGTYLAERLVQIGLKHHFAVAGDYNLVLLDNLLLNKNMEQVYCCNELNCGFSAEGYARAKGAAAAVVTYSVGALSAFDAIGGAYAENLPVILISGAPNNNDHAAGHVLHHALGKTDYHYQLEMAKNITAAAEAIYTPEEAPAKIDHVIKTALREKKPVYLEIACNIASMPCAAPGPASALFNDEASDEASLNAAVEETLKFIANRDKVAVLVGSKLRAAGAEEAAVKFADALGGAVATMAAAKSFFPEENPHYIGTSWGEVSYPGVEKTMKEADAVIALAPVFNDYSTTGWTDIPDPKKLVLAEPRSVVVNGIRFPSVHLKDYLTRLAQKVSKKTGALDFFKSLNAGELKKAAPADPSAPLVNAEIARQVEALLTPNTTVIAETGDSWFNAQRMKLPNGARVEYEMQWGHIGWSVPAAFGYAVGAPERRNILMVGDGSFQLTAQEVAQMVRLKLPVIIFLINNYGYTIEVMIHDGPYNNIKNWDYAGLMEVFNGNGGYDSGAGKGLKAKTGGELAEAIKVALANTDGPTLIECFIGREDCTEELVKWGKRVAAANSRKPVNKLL

Ki: 0.0325 nM
SMILES: Cc1ncc(Cc2coc(CCOP(=O)(O)OP(=O)(O)O)c2)c(N)n1 [compound 17, furan analogue of ThDP]
